Experimental data reported in patent publication US9005646B2, “Compositions for repair of defects in tissues, and methods of making the same” (LifeNet Health, priority 2005, dated 2015).

How the values were obtained:
[1] = tested on: athymic nude mice; experiment: Osteoinductivity bioassay of irradiated compositions with radioprotectant, implanted into athymic nude mice; assay type: in vivo; conditions: for Passed Osteoinductivity: radioprotectant added to homogenized fascia slurry of tissue repair composition, post-gamma irradiation, implanted into athymic nude mice
Description: (§1) Multiple radioprotectants (Table 1) were investigated over a range of concentrations and the handling characteristics of the resultant products were semi-quantitatively analyzed post-gamma irradiation. Those products that passed the semi-quantitative analysis went on to be implanted into athymic nude mice as a bioassay to assess osteoinductivity.
The method to add the radioprotectant was consistent for each radioprotectant investigated. The slurry was made as described in example 1 (heating and blending cycles) and once completed, the radioprotectant of choice was added to the slurry in the form it was supplied from the manufacturer (powder or liquid).

[2] = Semi-quantitative analysis of handling characteristics post-gamma irradiation; assay type: physicochemical; conditions: putty/paste tissue repair composition; sterilizing dose of gamma irradiation; 100 mM where radioprotectant present
Description: To meet the current U.S. FDA regulatory standards and market expectations, a product must be sterile to a sterility assurance level of 1×10^−6 (SAL). […] The composition crumbled apart releasing the bone matrix.
In order to manufacture a tissue repair composition, in the form of a putty/paste, having desirable handling characteristics post-irradiation at dose designed to achieve a SAL of 1×10^−6, it was thought that the addition of one or more radioprotectants to the composition would produce a product with the desirable handling properties because the radioprotectant will act as a free radical scavenger during the irradiation sterilization process and would protect the handling characteristics of the putty/paste composition. An addition facet was that the radioprotectant must not negatively interfere with the biological activity over time (shelf life).
as §1

handling characteristics after gamma irradiation [2] | Compound | Passed Osteoinductivity [1] | impact on osteoinductivity ([1]; 100 mM radioprotectant in composition, after sterilizing dose of gamma irradiation)
– | L-Ascorbic Acid, salt | Yes | –
– | L-Ascorbic Acid 2-phosphate sesquimagnesium salt | Yes | –
no negative impact | N=C(N)NN [Aminoguanidine] | Yes | no negative impact
